Assay results reported in patent US11298403B2, “Therapeutic agent for inflammatory bowel disease” (StemRIM Inc., priority 2017, dated 2022).

Tests used:
Assay type in all cases: in vivo, C57BL/6 mice
[1] = system: IBD model mice (DSS-induced enteritis); assay: DSS-induced colitis (IBD) model mice, Example 1: intravenous peptide on 6th and 7th days; body weight and large intestine length; settings: 9th day of DSS drinking, 5 mg/kg i.v. on 6th and 7th days, n=3
Experimental: Dextran sulfate sodium (DSS) (molecular weight 5,000 to 6,000, manufactured by Nacalai Tesque, catalog No. 10930-94) was dissolved in water to prepare a 3% (w/v) DSS aqueous solution. A peptide consisting of amino acid residues 1-44 of the human-derived HMGB1 protein (SEQ ID NO: 1) was chemically synthesized by a solid-phase method. Hereinafter, the HMGB1 fragment peptide is referred to as the HMGB1 peptide (1-44) and is expressed as an abbreviation “1-44” in the drawings corresponding to the Examples. […]
(§1) The IBD model mice produced as described above were divided into the HMGB1 peptide (1-44) administration group (n=3) and the control group (n=3). […] Hereinafter, “the Xth day after the start of drinking the DSS aqueous solution” is expressed as an abbreviation “the Xth day of DSS drinking”.
(§2) The body weight of the mice was measured daily from the start of drinking the DSS aqueous solution until the removal of the large intestine. On the 9th day of DSS drinking, the large intestine was excised from the mice, and the length of the large intestine was measured. mRNA was extracted from the terminal part near the anus in the excised large intestine, and the expression level of inflammatory cytokines (TNF-α, IL-1β, and IL-6) was analyzed by quantitative PCR.

TNF-α = assay: Example 1: inflammatory cytokine mRNA in large intestine by quantitative PCR (TNF-α); settings: 9th day of DSS drinking, 5 mg/kg i.v. on 6th and 7th days, FIG. 3
Excerpt: (§3) Colitis was induced in C57BL/6 mice (8 to 10-week-old, male, body weight about 20 g) by allowing them to freely drink the 3% DSS aqueous solution in place of purified water (RO water) (drinking of the DSS aqueous solution was continued until the removal of the large intestine). Mice that were allowed to freely drink purified water (RO water) (hereinafter, referred to as “normal mice”) were used as comparative subjects.
as §1, §2

IL-1β = assay: Example 1: inflammatory cytokine mRNA in large intestine by quantitative PCR (IL-1β); settings: 9th day of DSS drinking, 5 mg/kg i.v. on 6th and 7th days, FIG. 3
Excerpt: as §3, §1, §2

IL-6 = assay: Example 1: inflammatory cytokine mRNA in large intestine by quantitative PCR (IL-6); settings: 9th day of DSS drinking, 5 mg/kg i.v. on 6th and 7th days, FIG. 3
Excerpt: as §3, §1, §2

[2] = system: IBD model mice (DSS-induced enteritis); assay: DSS-induced colitis (IBD) model mice, Example 2: intravenous peptide on 1st, 3rd, 5th and 7th days; body weight, large intestine length, HE staining; settings: 10th day of DSS drinking, 5 mg/kg i.v. on 1st
Experimental: as §3
(§4) The DSS aqueous solution and the HMGB1 peptide (1-44) were prepared and the inflammatory bowel disease model mice were produced in the same way as Example 1.
The IBD model mice produced as described in Example 1 were divided into the HMGB1 peptide (1-44) administration group (n=3) and the control group (n=3). The test substance was administered by injecting an HMGB1 peptide (1-44) solution, which has been adjusted to a concentration of 0.5 mg/ml with saline as the vehicle, into the vein at a dose of 200 μl/animal (5 mg/kg as the peptide dose) on the 1st, 3rd, 5th, and 7th days of DSS drinking. In the control group, saline was injected into the vein at a dose of 200 μl/animal on the 1st, 3rd, 5th, and 7th days of DSS drinking. No substance was administered to the normal mice (n=3).
The body weight of the mice was measured daily from the start of drinking the DSS aqueous solution until the removal of the large intestine. On the 10th day of DSS drinking, the large intestine was excised from the mice, and the length of the large intestine was measured. Tissue sections of the cross-section of the intestinal tract were produced using the terminal part near the anus of the excised large intestine, and hematoxylin-eosin (HE) staining was performed.

[3] = system: IBD model mice (DSS-induced enteritis); assay: DSS-induced colitis (IBD) model mice, Example 3: peptide-containing hydrogel embedded on the back; body weight, large intestine length; settings: 10th day of DSS drinking, MedGel PI5 hydrogel with 20 μl of 5 μg/μl peptide embedded on the back one day before DSS, n=3
Experimental: as §3, §4
A bioabsorbable hydrogel (MedGel (registered trademark) PI5, manufactured by MedGEL CO., LTD) cut into a size of about 5 mm×5 mm was soaked with 20 μl of an HMGB1 peptide (1-44) solution, which has been adjusted to a concentration of 5 μg/μl with saline as the vehicle, by dripping and allowed to stand under ice-cooling for 30 minutes. The resulting hydrogel was used for embedding in the mice of the HMGB1 peptide (1-44) administration group. […]
The body weight of the mice was measured daily from the start of drinking the DSS aqueous solution until the removal of the large intestine. On the 10th day of DSS drinking, the large intestine was excised from the mice, and the length of the large intestine was measured.

HMGB1 peptide (1-44): peptide consisting of amino acid residues 1-44 of the human-derived HMGB1 protein (SEQ ID NO: 1), chemically synthesized by a solid-phase method (MGKGDPKKPRGKMSSYAFFVQTCREEHKKKHPDASVNFSEFSKK)
body weight vs control group ([1]; FIG. 1): significantly higher than that of the control group | length of the large intestine vs control group ([1]; FIG. 2): significantly longer than that of the control group | expression level of TNF-α in the large intestine vs control group (TNF-α): significantly lower than that of the control group | expression level of IL-1β in the large intestine vs control group (IL-1β): significantly lower than that of the control group | expression level of IL-6 in the large intestine vs control group (IL-6): significantly lower than that of the control group | mucosal tissue damage of the large intestine (HE staining) ([2]; FIG. 6): damage of the mucosal tissue was suppressed | body weight vs control group ([2]; n=3, FIG. 4): significantly higher than that of the control group | length of the large intestine vs control group ([2]; n=3, FIG. 5): significantly longer than that of the control group | body weight vs control group ([3]; FIG. 7): higher than that of the control group | length of the large intestine vs control group ([3]; FIG. 8): longer than that of the control group
